Experimental data as given in ChEMBL document CHEMBL4177617 (Bioorg Med Chem Lett, 2017).

Test system: not listed separately
Assay: Inhibition of protease activity of Clostridium botulinum BoNT/A light chain using 66-mer SNAP-25 as substrate by LC-MS analysis
Conditions: not given; call rule not given here

Structure (SMILES)	IC50
NCCc1ccc(OC(=O)c2ccc(O)c(O)c2)c(OC(=O)c2ccc(O)c(O)c2)c1	Not Active
O=C(/C=C/c1ccc([N+](=O)[O-])cc1)Oc1ccccc1OC(=O)/C=C/c1ccc([N+](=O)[O-])cc1	Not Active
CC(=O)Oc1ccc(/C=C/C(=O)Oc2ccccc2OC(=O)/C=C/c2ccc(OC(C)=O)c(OC(C)=O)c2)cc1OC(C)=O	Not Active
O=C(/C=C/c1ccc(CO)cc1)Oc1ccccc1OC(=O)/C=C/c1ccc(CO)cc1	Not Active
O=Cc1ccc(/C=C/C(=O)Oc2ccccc2OC(=O)/C=C/c2ccc(C=O)cc2)cc1	Not Active

Same assay, conditions: read-out: IC50

Structure (SMILES)	IC50 [µM]
CC(C)OC(=O)[C@H](OC(=O)/C=C/c1ccc(O)c(O)c1)[C@@H](OC(=O)/C=C/c1ccc(O)c(O)c1)C(=O)OC(C)C	2.7
O=C(/C=C/c1cccc(O)c1)Oc1ccccc1OC(=O)/C=C/c1cccc(O)c1	> 20
O=C(/C=C/c1ccc(O)c(O)c1)OCc1ccccc1OC(=O)/C=C/c1ccc(O)c(O)c1	0.14
O=C(/C=C/c1ccc(O)c(O)c1)OC/C=C\COC(=O)/C=C/c1ccc(O)c(O)c1	0.45
O=C(/C=C/c1ccc(O)c(O)c1)Oc1ccccc1OC(=O)/C=C/c1ccc(O)c(O)c1	0.49
O=C(/C=C/c1ccc(O)c(O)c1)O[C@@H]1CCCCC[C@H]1OC(=O)/C=C/c1ccc(O)c(O)c1	3.2
O=C(/C=C/c1ccc(O)c(O)c1)OCc1ccccc1COC(=O)/C=C/c1ccc(O)c(O)c1	1.1
O=C(/C=C/c1ccc(O)c(O)c1)O[C@H]1CCCC[C@H]1OC(=O)/C=C/c1ccc(O)c(O)c1	3.2
O=C(/C=C/c1ccc(O)c(O)c1)Nc1ccccc1NC(=O)/C=C/c1ccc(O)c(O)c1	3.3
O=C(/C=C/c1ccc(O)c(O)c1)OCC#CCOC(=O)/C=C/c1ccc(O)c(O)c1	0.41
COC(=O)c1ccc(OC(=O)/C=C/c2ccc(O)c(O)c2)c(OC(=O)/C=C/c2ccc(O)c(O)c2)c1	0.39
O=C(/C=C/c1ccc(O)c(O)c1)OC[C@@H]1C[C@@H]1COC(=O)/C=C/c1ccc(O)c(O)c1	0.13
O=C(/C=C/c1ccc(O)c(O)c1)O[C@H]1CCC[C@H]1OC(=O)/C=C/c1ccc(O)c(O)c1	2.4
O=C(/C=C/c1ccc(O)c(O)c1)OC[C@H]1CC[C@H]1COC(=O)/C=C/c1ccc(O)c(O)c1	1.7
O=C(/C=C/c1ccc(O)c(O)c1)Oc1cccc2cccc(OC(=O)/C=C/c3ccc(O)c(O)c3)c12	0.05
O=C(Oc1ccccc1OC(=O)c1ccc(O)c(O)c1)c1ccc(O)c(O)c1	> 20
O=C(/C=C/c1ccc(O)c(O)c1)Oc1cc2c(cc1OC(=O)/C=C/c1ccc(O)c(O)c1)OCCO2	0.3
O=C(/C=C/c1ccc(O)c(O)c1)Oc1cccc(OC(=O)/C=C/c2ccc(O)c(O)c2)c1	0.56
CC(C)(C)C(COC(=O)/C=C/c1ccc(O)c(O)c1)COC(=O)/C=C/c1ccc(O)c(O)c1	0.13
O=C(Oc1ccccc1OC(=O)c1ccc(O)cc1)c1ccc(O)cc1	9.5

Test system: Clostridium botulinum
Assay: Inhibition of protease activity of Clostridium botulinum BoNT/A light chain using 66-mer SNAP-25 as substrate by LC-MS analysis relative to control
Conditions: concentration not given here

Structure (SMILES)	inhibition [%]
O=C(/C=C/c1ccc(O)c(O)c1)Oc1ccccc1OC(=O)/C=C/c1ccc(O)c(O)c1	96
O=C(/C=C/c1ccc(O)c(O)c1)O[C@@H](C(=O)O)[C@@H](OC(=O)/C=C/c1ccc(O)c(O)c1)C(=O)O	64
O=C(/C=C/c1ccc(O)c(O)c1)OC[C@@H]1C[C@@H]1COC(=O)/C=C/c1ccc(O)c(O)c1	75
